Laboratory results as given in PubChem BioAssay AID248 (DTP/NCI, 2004).
Several values for one entry are separate records, joined by “and”; a condition that tells them apart may be missing. Equal values may be shown once. Toxic doses and inconclusive results are not listed. No stated cut-off is given here; in the data, active means T/C of 150% or more; inactive means T/C below 125%.

System: L1210 leukemia ip in BDF1 mice, survival T/C
Test: NCI In Vivo Anticancer Drug Screen. Data for tumor model L1210 Leukemia (intraperitoneal) in B6D2F1 (BDF1) mice
Conditions: endpoint: mean survival time, higher = longer survival
Procedure, shortened: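 Transplanted-tumor mice were given test agent; controls received vehicle only. Survival readings from the two groups were divided (treated over control).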

[1] = dose: 100.0 mg/kg/injection, schedule: Q01DX001 (ip), vehicle: saline
[2] = dose: 100.0 mg/kg/injection, schedule: Q04DX002 (ip), vehicle: Klucel (hydroxypropylcellulose) (HPC)
[3] = dose: 200.0 mg/kg/injection, schedule: Q01DX001 (ip), vehicle: saline
[4] = dose: 200.0 mg/kg/injection, schedule: Q04DX002 (ip), vehicle: Klucel (hydroxypropylcellulose) (HPC)
[5] = dose: 400.0 mg/kg/injection, schedule: Q01DX001 (ip), vehicle: saline
[6] = dose: 400.0 mg/kg/injection, schedule: Q04DX002 (ip), vehicle: Klucel (hydroxypropylcellulose) (HPC)
[7] = dose: 100.0 mg/kg/injection, schedule: Q01DX009 (ip), vehicle: Klucel (hydroxypropylcellulose) (HPC)
[8] = dose: 100.0 mg/kg/injection, schedule: Q04DX003 (ip), vehicle: Klucel (hydroxypropylcellulose) (HPC)
[9] = dose: 200.0 mg/kg/injection, schedule: Q01DX009 (ip), vehicle: Klucel (hydroxypropylcellulose) (HPC)
[10] = dose: 200.0 mg/kg/injection, schedule: Q04DX003 (ip), vehicle: Klucel (hydroxypropylcellulose) (HPC)
[11] = dose: 400.0 mg/kg/injection, schedule: Q01DX009 (ip), vehicle: Klucel (hydroxypropylcellulose) (HPC)
[12] = dose: 400.0 mg/kg/injection, schedule: Q04DX003 (ip), vehicle: Klucel (hydroxypropylcellulose) (HPC)
[13] = dose: 100.0 mg/kg/injection, schedule: Q01DX009 (ip), vehicle: saline with Tween-80
[14] = dose: 100.0 mg/kg/injection, schedule: Q04DX003 (ip), vehicle: saline with Tween-80
[15] = dose: 200.0 mg/kg/injection, schedule: Q01DX009 (ip), vehicle: saline with Tween-80
[16] = dose: 200.0 mg/kg/injection, schedule: Q04DX003 (ip), vehicle: saline with Tween-80
[17] = dose: 400.0 mg/kg/injection, schedule: Q04DX003 (ip), vehicle: saline with Tween-80

Measured: T/C

CC(=O)OC1CCC2(C)C3=CCC4(C)C(C(C)/C=C\C(C)C(C)C)CCC4C34C=CC2(C1)C1C(=O)OC(=O)C14 (centres undefined)
inactive: dose: 25.0 mg/kg/injection, schedule: Q04DX002 (ip), vehicle: saline with Tween-80 98 % of control | dose: 50.0 mg/kg/injection, schedule: Q04DX002 (ip), vehicle: saline with Tween-80 90 % of control | dose: 100.0 mg/kg/injection, schedule: Q04DX002 (ip), vehicle: saline with Tween-80 94 % of control

O=S(=O)(OCC1C2CCC1CC2)c1ccccc1 (centres undefined)
inactive: dose: 100.0 mg/kg/injection, schedule: Q01DX009 (ip), vehicle: other 92 % of control | dose: 100.0 mg/kg/injection, schedule: Q04DX003 (ip), vehicle: other 104 % of control | dose: 200.0 mg/kg/injection, schedule: Q01DX009 (ip), vehicle: other 94 % of control | dose: 200.0 mg/kg/injection, schedule: Q04DX003 (ip), vehicle: other 94 % of control | dose: 400.0 mg/kg/injection, schedule: Q01DX009 (ip), vehicle: other 101 % of control | dose: 400.0 mg/kg/injection, schedule: Q04DX003 (ip), vehicle: other 89 % of control

Nc1cc(S(=O)(=O)O)cc2ccc(S(=O)(=O)O)cc12
inactive: dose: 100.0 mg/kg/injection, schedule: Q01DX009 (ip), vehicle: saline 102 % of control | dose: 100.0 mg/kg/injection, schedule: Q04DX003 (ip), vehicle: saline 111 % of control | dose: 200.0 mg/kg/injection, schedule: Q01DX009 (ip), vehicle: saline 96 % of control | dose: 200.0 mg/kg/injection, schedule: Q04DX003 (ip), vehicle: saline 101 % of control | dose: 400.0 mg/kg/injection, schedule: Q01DX009 (ip), vehicle: saline 102 % of control | dose: 400.0 mg/kg/injection, schedule: Q04DX003 (ip), vehicle: saline 93 % of control

Cn1ncc(C#N)c1N
inactive: dose: 50.0 mg/kg/injection, schedule: Q01DX001 (ip), vehicle: saline 98 % of control | [1] 110 % of control | [2] 98 % of control | [3] 95 % of control | [4] 91 % of control | [5] 95 % of control | [6] 100 % of control

N#Cc1ccc(-c2ccc(C#N)cc2Br)c(Br)c1
inactive: [7] 93 % of control | [8] 94 % of control | [9] 93 % of control | [10] 95 % of control | [11] 88 % of control | [12] 96 % of control

O=C(O)COc1nc2ccccc2s1
inactive: [7] 95 % of control | dose: 100.0 mg/kg/injection, schedule: Q04DX003 (ip), vehicle: alcohol 105 % of control | [9] 96 % of control | dose: 200.0 mg/kg/injection, schedule: Q04DX003 (ip), vehicle: alcohol 98 % of control | [11] 88 % of control | dose: 400.0 mg/kg/injection, schedule: Q04DX003 (ip), vehicle: alcohol 94 % of control

COC(=O)C1(C(=O)OC)CC1CCl (centres undefined)
inactive: [13] 96 % of control | [14] 101 % of control | [15] 105 % of control | [16] 101 % of control | dose: 400.0 mg/kg/injection, schedule: Q01DX009 (ip), vehicle: saline with Tween-80 93 % of control | [17] 95 % of control

COc1cc(C)c2ccc3ccccc3c2n1
inactive: dose: 100.0 mg/kg/injection, schedule: Q01DX001 (ip), vehicle: other 93 % of control | dose: 200.0 mg/kg/injection, schedule: Q01DX001 (ip), vehicle: other 95 % of control | dose: 400.0 mg/kg/injection, schedule: Q01DX001 (ip), vehicle: other 97 % of control

Cc1ccc(-n2c(=S)[nH]c3ccccc3c2=O)cc1F
inactive: [14] 94 % of control | [16] 93 % of control | [17] 89 % of control

CCOC(=O)C(C)(C)C(=O)C(C)C
inactive: [2] 100 % of control | [4] 95 % of control | [6] 103 % of control

OCC(Oc1ccccc1)C(O)C(O)C(CO)Oc1ccccc1 (centres undefined)
inactive: [7] 103 % of control | [9] 103 % of control | [11] 95 % of control

Cc1ccc(S(=O)(=O)/N=C2\SCc3ccccc32)cc1
inactive: dose: 12.5 mg/kg/injection, schedule: Q01DX009 (ip), vehicle: saline 108 % of control | dose: 25.0 mg/kg/injection, schedule: Q01DX009 (ip), vehicle: saline 105 % of control | dose: 50.0 mg/kg/injection, schedule: Q01DX009 (ip), vehicle: saline 94 % of control and 101 % of control | dose: 100.0 mg/kg/injection, schedule: Q01DX001 (ip), vehicle: Klucel (hydroxypropylcellulose) (HPC) 94 % of control | dose: 200.0 mg/kg/injection, schedule: Q01DX001 (ip), vehicle: Klucel (hydroxypropylcellulose) (HPC) 88 % of control | dose: 400.0 mg/kg/injection, schedule: Q01DX001 (ip), vehicle: Klucel (hydroxypropylcellulose) (HPC) 98 % of control

Clc1ccccc1Nc1ccnc(SCc2ccccc2)n1
inactive: dose: 25.0 mg/kg/injection, schedule: Q01DX001 (ip), vehicle: DMSO 93 % of control | dose: 25.0 mg/kg/injection, schedule: Q04DX003 (ip), vehicle: DMSO 96 % of control | dose: 50.0 mg/kg/injection, schedule: Q01DX001 (ip), vehicle: DMSO 100 % of control | dose: 50.0 mg/kg/injection, schedule: Q04DX003 (ip), vehicle: DMSO 95 % of control | dose: 100.0 mg/kg/injection, schedule: Q01DX001 (ip), vehicle: DMSO 88 % of control and 92 % of control | dose: 100.0 mg/kg/injection, schedule: Q04DX003 (ip), vehicle: DMSO 93 % of control

OCC12C=CC(CC1)CC2
inactive: dose: 75.0 mg/kg/injection, schedule: Q04DX002 (ip), vehicle: gum acacia 92 % of control | dose: 150.0 mg/kg/injection, schedule: Q04DX002 (ip), vehicle: gum acacia 100 % of control | dose: 300.0 mg/kg/injection, schedule: Q04DX002 (ip), vehicle: gum acacia 92 % of control

Cc1cc2oc(=O)c3c(c2c(O)c1CN1CCN(C)CC1)CCCC3
inactive: [1] 95 % of control | [3] 92 % of control

CC[N+]12CC=C(CO)C1C(O)CC2 (centres undefined)
inactive: dose: 50.0 mg/kg/injection, schedule: Q01DX009 (ip), vehicle: Klucel (hydroxypropylcellulose) (HPC) 100 % of control | [7] 95 % of control | [9] 95 % of control

Clc1ccc2c(c1)C(Nc1cc3c4ccccc4ccc3c3ccccc13)c1cc(Cl)cc(Cl)c1-2 (centres undefined)
inactive: [7] 88 % of control | [8] 90 % of control | [9] 88 % of control | [10] 95 % of control | [11] 86 % of control | [12] 93 % of control

O=C(O)c1cc([N+](=O)[O-])ccc1Oc1cccc([N+](=O)[O-])c1
inactive: dose: 222.0 mg/kg/injection, schedule: Q01DX Z (ip), vehicle: methylcellulose (MC) 93 % of control | dose: 333.0 mg/kg/injection, schedule: Q01DX Z (ip), vehicle: methylcellulose (MC) 90 % of control | dose: 500.0 mg/kg/injection, schedule: Q01DX Z (ip), vehicle: methylcellulose (MC) 93 % of control

O=C(O)c1cccc2[nH]c(=O)oc(=O)c12
inactive: [13] 103 % of control | [15] 106 % of control

Cc1ccc2[nH]c3c(C)c4ccncc4c(C)c3c2c1
inactive: dose: 12.5 mg/kg/injection, schedule: Q01DX Z (ip), vehicle: saline 103 % of control | dose: 25.0 mg/kg/injection, schedule: Q01DX Z (ip), vehicle: saline 97 % of control | dose: 50.0 mg/kg/injection, schedule: Q01DX Z (ip), vehicle: saline 111 % of control | dose: 75.0 mg/kg/injection, schedule: Q01DX Z (ip), vehicle: saline 102 % of control | [1] 105 % of control | dose: 100.0 mg/kg/injection, schedule: Q01DX Z (ip), vehicle: saline 97 % of control and 107 % of control | dose: 150.0 mg/kg/injection, schedule: Q01DX Z (ip), vehicle: saline 100 % of control | [3] 98 % of control | dose: 225.0 mg/kg/injection, schedule: Q01DX Z (ip), vehicle: saline 105 % of control | dose: 340.0 mg/kg/injection, schedule: Q01DX Z (ip), vehicle: saline 102 % of control | [5] 100 % of control
